“And” between values parts separate entries of the source, which are not always exact repeats. Identical values can stand only once. Blank lines part the entries; values can stand above or below the compound they belong to.
Experiments:
H^+,K^+-ATPase N138F = H^+,K^+-ATPase N138F (Sus scrofa, UniProt P19156, N139F); assay: ATPase assay, N138F mutant
[1] = molecular target: H^+,K^+-ATPase A335C/C813A (Sus scrofa, UniProt P19156, A336C/C814A); assay: ATPase assay, A335C/C813A mutant
H^+,K^+-ATPase N138A = H^+,K^+-ATPase N138A (Sus scrofa, UniProt P19156, N139A); assay: ATPase assay, N138A mutant
H^+,K^+-ATPase D137E = molecular target: T1, H^+,K^+-ATPase D137E (Sus scrofa, UniProt P19156, D138E); assay: ATPase assay, D137E mutant; format: biochemical, pig
T1 construct: made in house; host or cells: HEK293S GnT1- cells (BacMam baculovirus transduction), membrane fraction

H^+,K^+-ATPase L141I = H^+,K^+-ATPase L141I (Sus scrofa, UniProt P19156, L142I); assay: ATPase assay, L141I mutant
H^+,K^+-ATPase L809F [2] = molecular target: H^+,K^+-ATPase L809F (Sus scrofa, UniProt P19156, L810F); assay: ATPase assay, L809F mutant
H^+,K^+-ATPase D136I = H^+,K^+-ATPase D136I (Sus scrofa, UniProt P19156, D137I); assay: ATPase assay, D136I mutant
H^+,K^+-ATPase N138I = H^+,K^+-ATPase N138I (Sus scrofa, UniProt P19156, N139I); assay: ATPase assay, N138I mutant
H^+,K^+-ATPase D136A = H^+,K^+-ATPase D136A (Sus scrofa, UniProt P19156, D137A); assay: ATPase assay, D136A mutant
H^+,K^+-ATPase N138D = H^+,K^+-ATPase N138D (Sus scrofa, UniProt P19156, N139D); assay: ATPase assay, N138D mutant
H^+,K^+-ATPase D136F = H^+,K^+-ATPase D136F (Sus scrofa, UniProt P19156, D137F); assay: ATPase assay, D136F mutant
H^+,K^+-ATPase D137N = H^+,K^+-ATPase D137N (Sus scrofa, UniProt P19156, D138N); assay: ATPase assay, D137N mutant
H^+,K^+-ATPase D137F = H^+,K^+-ATPase D137F (Sus scrofa, UniProt P19156, D138F); assay: ATPase assay, D137F mutant
H^+,K^+-ATPase = H^+,K^+-ATPase (Sus scrofa, UniProt P19156); assay: Dose-dependent inhibition of H^+,K^+-ATPase activity in the presence of 10 mM KCl
Protocol: Reactions were initiated by incubating at 37 °C using a thermal cycler, and maintained for 1 to 5 h (depending on the activity). Reactions were terminated by withdrawing 40 μL from the 80 μL reactant, and mixing with 80 μL of stop solution comprising 6% ascorbic acid and 2% ammonium molybdate in 1 N HCl, followed by the addition of 120 μL of 2% sodium arsenate, 2% sodium citrate, and 2% acetic acid. The amount of released inorganic phosphate was determined colorimetrically[39] from absorbance at 850 nm by the microplate reader (TECAN).

H^+,K^+-ATPase Y140I = H^+,K^+-ATPase Y140I (Sus scrofa, UniProt P19156, Y141I); assay: ATPase assay, Y140I mutant
H^+,K^+-ATPase Y799A [3] = molecular target: H^+,K^+-ATPase Y799A (Sus scrofa, UniProt P19156, Y800A); assay: ATPase assay, Y799A mutant
H^+,K^+-ATPase A335G = H^+,K^+-ATPase A335G (Sus scrofa, UniProt P19156, A336G); assay: ATPase assay, A335G mutant
H^+,K^+-ATPase L139A = H^+,K^+-ATPase L139A (Sus scrofa, UniProt P19156, L140A); assay: ATPase assay, L139A mutant
H^+,K^+-ATPase D137L = H^+,K^+-ATPase D137L (Sus scrofa, UniProt P19156, D138L); assay: ATPase assay, D137L mutant
H^+,K^+-ATPase Y799F [4] = molecular target: H^+,K^+-ATPase Y799F (Sus scrofa, UniProt P19156, Y800F); assay: ATPase assay, Y799F mutant
H^+,K^+-ATPase D137A = H^+,K^+-ATPase D137A (Sus scrofa, UniProt P19156, D138A); assay: ATPase assay, D137A mutant
H^+,K^+-ATPase L139F = H^+,K^+-ATPase L139F (Sus scrofa, UniProt P19156, L140F); assay: ATPase assay, L139F mutant
H^+,K^+-ATPase Y140A = H^+,K^+-ATPase Y140A (Sus scrofa, UniProt P19156, Y141A); assay: ATPase assay, Y140A mutant
H^+,K^+-ATPase D137I = H^+,K^+-ATPase D137I (Sus scrofa, UniProt P19156, D138I); assay: ATPase assay, D137I mutant
H^+,K^+-ATPase D136L = H^+,K^+-ATPase D136L (Sus scrofa, UniProt P19156, D137L); assay: ATPase assay, D136L mutant
[5] = molecular target: H^+,K^+-ATPase D137N/N138D (Sus scrofa, UniProt P19156, D138N/N139D); assay: ATPase assay, D137N/N138D mutant; settings: D137N/N138D
H^+,K^+-ATPase WT = molecular target: T2, H^+,K^+-ATPase WT (Sus scrofa, UniProt P19156); assay: K^+-competitive inhibition of H^+,K^+-ATPase activity, 96-well ATPase assay, wild-type; format: biochemical, pig; settings: WT
T2 construct: made in house; host or cells: HEK293S GnT1- cells (BacMam baculovirus transduction); permeabilised membrane fractions

H^+,K^+-ATPase N138L = H^+,K^+-ATPase N138L (Sus scrofa, UniProt P19156, N139L); assay: ATPase assay, N138L mutant
H^+,K^+-ATPase L139I = H^+,K^+-ATPase L139I (Sus scrofa, UniProt P19156, L140I); assay: ATPase assay, L139I mutant
H^+,K^+-ATPase Y140F = H^+,K^+-ATPase Y140F (Sus scrofa, UniProt P19156, Y141F); assay: ATPase assay, Y140F mutant
H^+,K^+-ATPase Y140L = H^+,K^+-ATPase Y140L (Sus scrofa, UniProt P19156, Y141L); assay: ATPase assay, Y140L mutant
H^+,K^+-ATPase Y799F [6] = system: H^+,K^+-ATPase Y799F; parameters: method as in PMID 14699149; settings: cited from earlier work
[7] = pKa and protonation of imidazo[1,2-a]pyridine; format: physicochemical; settings: at pH 7.0 of the ATPase assays
[8] = molecular target: H^+,K^+-ATPase A335C/C813A; parameters: method as in PMID 12379118; settings: cited from earlier work
H^+,K^+-ATPase Y799A [9] = system: H^+,K^+-ATPase Y799A; parameters: method as in PMID 14699149; settings: Y799A vs wild-type; cited from earlier work
H^+,K^+-ATPase L809F [10] = settings: cited from earlier work

H^+,K^+-ATPase L139F, sequence (P19156 whole entry L140F): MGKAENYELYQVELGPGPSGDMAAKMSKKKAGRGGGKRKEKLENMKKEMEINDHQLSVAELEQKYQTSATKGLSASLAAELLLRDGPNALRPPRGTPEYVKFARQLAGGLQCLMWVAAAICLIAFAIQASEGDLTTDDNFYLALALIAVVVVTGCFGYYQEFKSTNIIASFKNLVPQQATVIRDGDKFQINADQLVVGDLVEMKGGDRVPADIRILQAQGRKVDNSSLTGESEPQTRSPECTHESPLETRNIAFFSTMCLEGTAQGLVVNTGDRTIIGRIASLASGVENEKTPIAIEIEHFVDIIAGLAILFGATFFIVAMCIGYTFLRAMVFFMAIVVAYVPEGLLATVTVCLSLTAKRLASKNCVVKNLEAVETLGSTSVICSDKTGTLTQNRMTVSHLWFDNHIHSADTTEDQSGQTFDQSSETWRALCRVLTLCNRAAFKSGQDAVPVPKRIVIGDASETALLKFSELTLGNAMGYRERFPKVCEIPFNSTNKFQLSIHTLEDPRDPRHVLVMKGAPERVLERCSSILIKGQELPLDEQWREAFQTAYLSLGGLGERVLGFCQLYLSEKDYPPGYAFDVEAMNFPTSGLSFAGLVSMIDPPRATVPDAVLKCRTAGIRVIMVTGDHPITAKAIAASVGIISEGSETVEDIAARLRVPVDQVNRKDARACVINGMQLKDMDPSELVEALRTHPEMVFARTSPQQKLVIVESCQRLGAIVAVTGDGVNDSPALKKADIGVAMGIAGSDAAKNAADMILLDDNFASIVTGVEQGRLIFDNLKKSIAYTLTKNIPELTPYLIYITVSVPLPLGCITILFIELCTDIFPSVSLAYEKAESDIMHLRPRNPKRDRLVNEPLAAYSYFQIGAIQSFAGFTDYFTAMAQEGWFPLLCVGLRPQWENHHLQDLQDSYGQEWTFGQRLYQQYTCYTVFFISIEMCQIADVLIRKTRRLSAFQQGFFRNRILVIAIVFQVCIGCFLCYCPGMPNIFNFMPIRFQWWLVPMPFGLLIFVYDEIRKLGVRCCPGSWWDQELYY
H^+,K^+-ATPase L139F, sequence (P18434 whole entry partner): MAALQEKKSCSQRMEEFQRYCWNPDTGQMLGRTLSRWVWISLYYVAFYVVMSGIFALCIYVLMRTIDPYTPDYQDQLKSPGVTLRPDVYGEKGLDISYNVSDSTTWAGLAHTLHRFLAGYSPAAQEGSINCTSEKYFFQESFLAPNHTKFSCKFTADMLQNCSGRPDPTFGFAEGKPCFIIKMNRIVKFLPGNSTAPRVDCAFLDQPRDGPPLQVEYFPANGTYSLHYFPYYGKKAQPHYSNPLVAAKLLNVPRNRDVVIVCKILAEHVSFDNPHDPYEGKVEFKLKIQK
H^+,K^+-ATPase L139I, sequence (P19156 whole entry L140I): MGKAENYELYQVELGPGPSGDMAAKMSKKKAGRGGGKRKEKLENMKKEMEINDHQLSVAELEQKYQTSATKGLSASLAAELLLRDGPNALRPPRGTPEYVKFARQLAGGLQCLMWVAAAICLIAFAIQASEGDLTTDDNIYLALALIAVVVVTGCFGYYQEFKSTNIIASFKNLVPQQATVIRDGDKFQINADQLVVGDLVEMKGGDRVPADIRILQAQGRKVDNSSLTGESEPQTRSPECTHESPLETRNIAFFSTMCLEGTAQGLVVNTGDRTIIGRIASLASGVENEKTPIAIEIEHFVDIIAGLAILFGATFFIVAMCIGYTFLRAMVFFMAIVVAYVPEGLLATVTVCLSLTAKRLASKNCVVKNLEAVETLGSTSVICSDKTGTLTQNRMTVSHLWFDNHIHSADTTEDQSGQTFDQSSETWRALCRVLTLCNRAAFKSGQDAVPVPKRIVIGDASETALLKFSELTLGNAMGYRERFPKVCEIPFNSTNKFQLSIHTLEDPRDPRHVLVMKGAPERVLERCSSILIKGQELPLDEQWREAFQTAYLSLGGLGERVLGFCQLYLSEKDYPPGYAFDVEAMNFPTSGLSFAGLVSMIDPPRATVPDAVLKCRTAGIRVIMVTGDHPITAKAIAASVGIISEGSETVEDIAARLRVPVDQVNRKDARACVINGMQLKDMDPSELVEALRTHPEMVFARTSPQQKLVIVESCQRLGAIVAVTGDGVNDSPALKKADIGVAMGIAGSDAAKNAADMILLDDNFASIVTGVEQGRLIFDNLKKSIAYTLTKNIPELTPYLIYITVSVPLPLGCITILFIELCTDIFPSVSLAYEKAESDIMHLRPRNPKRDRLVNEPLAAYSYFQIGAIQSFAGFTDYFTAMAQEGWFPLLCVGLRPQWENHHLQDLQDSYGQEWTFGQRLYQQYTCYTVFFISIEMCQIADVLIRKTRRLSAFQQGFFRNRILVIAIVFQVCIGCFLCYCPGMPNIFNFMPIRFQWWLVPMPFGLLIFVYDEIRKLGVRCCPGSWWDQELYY
H^+,K^+-ATPase L139I, sequence (P18434 whole entry partner): as the sequence (P18434 whole entry partner) above
H^+,K^+-ATPase N138A, sequence (P19156 whole entry N139A): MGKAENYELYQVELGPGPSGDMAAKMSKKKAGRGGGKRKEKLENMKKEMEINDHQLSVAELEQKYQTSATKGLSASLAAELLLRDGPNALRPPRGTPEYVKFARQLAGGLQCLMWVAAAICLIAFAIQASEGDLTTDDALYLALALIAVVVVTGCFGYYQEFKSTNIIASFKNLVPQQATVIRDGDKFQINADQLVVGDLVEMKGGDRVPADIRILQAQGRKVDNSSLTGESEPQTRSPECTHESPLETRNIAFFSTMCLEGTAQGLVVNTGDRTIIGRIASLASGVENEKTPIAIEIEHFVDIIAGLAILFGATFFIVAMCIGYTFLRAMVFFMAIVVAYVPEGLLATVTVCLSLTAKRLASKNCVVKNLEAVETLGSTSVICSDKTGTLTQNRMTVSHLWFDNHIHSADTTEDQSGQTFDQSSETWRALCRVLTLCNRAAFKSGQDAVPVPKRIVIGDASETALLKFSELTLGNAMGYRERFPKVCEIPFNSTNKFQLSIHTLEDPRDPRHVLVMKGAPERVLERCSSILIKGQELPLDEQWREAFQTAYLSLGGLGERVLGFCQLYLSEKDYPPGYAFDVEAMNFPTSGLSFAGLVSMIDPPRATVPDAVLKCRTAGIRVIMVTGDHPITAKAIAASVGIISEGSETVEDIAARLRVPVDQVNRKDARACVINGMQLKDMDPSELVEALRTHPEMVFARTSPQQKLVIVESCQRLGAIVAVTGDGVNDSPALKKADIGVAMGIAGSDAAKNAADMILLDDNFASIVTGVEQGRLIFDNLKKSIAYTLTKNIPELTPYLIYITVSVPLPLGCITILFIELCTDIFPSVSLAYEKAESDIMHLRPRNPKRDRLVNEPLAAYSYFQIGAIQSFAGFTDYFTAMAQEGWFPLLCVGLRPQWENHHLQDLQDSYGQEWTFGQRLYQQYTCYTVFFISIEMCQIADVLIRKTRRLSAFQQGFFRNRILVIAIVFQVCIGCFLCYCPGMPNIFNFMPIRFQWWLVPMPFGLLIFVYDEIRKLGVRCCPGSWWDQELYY
H^+,K^+-ATPase N138A, sequence (P18434 whole entry partner): as the sequence (P18434 whole entry partner) above
H^+,K^+-ATPase Y799F (Sus scrofa, UniProt P19156, Y800F), sequence (P19156 whole entry Y800F): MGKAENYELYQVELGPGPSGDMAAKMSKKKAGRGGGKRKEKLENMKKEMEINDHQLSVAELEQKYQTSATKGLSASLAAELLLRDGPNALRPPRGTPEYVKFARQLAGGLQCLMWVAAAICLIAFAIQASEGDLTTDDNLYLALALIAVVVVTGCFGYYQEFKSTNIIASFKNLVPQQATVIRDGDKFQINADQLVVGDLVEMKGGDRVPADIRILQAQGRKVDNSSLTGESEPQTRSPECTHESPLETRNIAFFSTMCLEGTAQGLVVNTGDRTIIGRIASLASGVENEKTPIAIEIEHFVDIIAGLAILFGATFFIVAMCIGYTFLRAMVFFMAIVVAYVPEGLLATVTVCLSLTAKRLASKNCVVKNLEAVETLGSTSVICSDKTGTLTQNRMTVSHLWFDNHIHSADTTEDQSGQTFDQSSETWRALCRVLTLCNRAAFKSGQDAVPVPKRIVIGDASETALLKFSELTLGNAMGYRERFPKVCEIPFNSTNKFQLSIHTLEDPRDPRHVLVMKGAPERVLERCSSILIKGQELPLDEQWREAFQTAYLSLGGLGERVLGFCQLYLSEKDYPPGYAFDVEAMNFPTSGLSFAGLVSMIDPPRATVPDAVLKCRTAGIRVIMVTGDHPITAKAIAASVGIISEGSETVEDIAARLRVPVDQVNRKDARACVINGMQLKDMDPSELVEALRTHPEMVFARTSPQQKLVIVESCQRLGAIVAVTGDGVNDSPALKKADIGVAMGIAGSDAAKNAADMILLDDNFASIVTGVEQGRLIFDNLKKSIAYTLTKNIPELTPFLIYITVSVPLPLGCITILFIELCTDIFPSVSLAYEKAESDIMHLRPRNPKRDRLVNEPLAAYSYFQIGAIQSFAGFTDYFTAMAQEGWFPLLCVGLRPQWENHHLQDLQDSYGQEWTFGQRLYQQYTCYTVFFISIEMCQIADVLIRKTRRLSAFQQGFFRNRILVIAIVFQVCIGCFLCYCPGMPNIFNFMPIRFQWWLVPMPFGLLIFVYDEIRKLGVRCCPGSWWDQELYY
H^+,K^+-ATPase Y799F (Sus scrofa, UniProt P19156, Y800F), sequence (P18434 whole entry partner): as the sequence (P18434 whole entry partner) above

Ki (H^+,K^+-ATPase N138F): 52 ± 9 µM
-fold increase in K i compared with wild-type (H^+,K^+-ATPase N138F; N138F): 16 fold
Ki [1]: 71 ± 10 µM
-fold increase in K i compared with wild-type ([1]; A335C/C813A): 22 fold
Ki (H^+,K^+-ATPase N138A): 4.2 ± 0.5 µM
-fold increase in K i compared with wild-type (H^+,K^+-ATPase N138A; N138A): 1.3 fold
-fold increase in K i compared with wild-type (H^+,K^+-ATPase D137E): 1.4 fold
Ki (H^+,K^+-ATPase D137E; high H^+-ATPase activity, K i' determined by K m/V max plot): 4.4 ± 0.4 µM
Ki (H^+,K^+-ATPase L141I): 2.4 ± 0.2 µM
-fold increase in K i compared with wild-type (H^+,K^+-ATPase L141I; L141I): 0.8 fold
Ki (H^+,K^+-ATPase L809F [2]): 98 ± 12 µM
-fold increase in K i compared with wild-type (H^+,K^+-ATPase L809F [2]; L809F): 31 fold
Ki (H^+,K^+-ATPase D136I): 4.1 ± 0.3 µM
-fold increase in K i compared with wild-type (H^+,K^+-ATPase D136I; D136I): 1.3 fold
Ki (H^+,K^+-ATPase N138I): 3.7 ± 0.7 µM
-fold increase in K i compared with wild-type (H^+,K^+-ATPase N138I; N138I): 1.2 fold
Ki (H^+,K^+-ATPase D136A): 5.1 ± 0.4 µM
-fold increase in K i compared with wild-type (H^+,K^+-ATPase D136A; D136A): 1.6 fold
Ki (H^+,K^+-ATPase N138D): 2.6 ± 0.2 µM
-fold increase in K i compared with wild-type (H^+,K^+-ATPase N138D; N138D): 0.8 fold
Ki (H^+,K^+-ATPase D136F): 2.9 ± 0.1 µM
-fold increase in K i compared with wild-type (H^+,K^+-ATPase D136F; D136F): 0.9 fold
Ki (H^+,K^+-ATPase D137N): 120 ± 30 µM
-fold increase in K i compared with wild-type (H^+,K^+-ATPase D137N; D137N): 38 fold
Ki (H^+,K^+-ATPase D137F): 47 ± 6 µM
-fold increase in K i compared with wild-type (H^+,K^+-ATPase D137F; D137F): 15 fold
IC50 (H^+,K^+-ATPase): 110 µM
Ki (H^+,K^+-ATPase Y140I): 2.1 ± 0.2 µM
-fold increase in K i compared with wild-type (H^+,K^+-ATPase Y140I; Y140I): 0.7 fold
Ki (H^+,K^+-ATPase Y799A [3]): 81 ± 15 µM
-fold increase in K i compared with wild-type (H^+,K^+-ATPase Y799A [3]; Y799A): 25 fold
Ki (H^+,K^+-ATPase A335G): 1 ± 0.1 µM
-fold increase in K i compared with wild-type (H^+,K^+-ATPase A335G; A335G): 0.3 fold
Ki (H^+,K^+-ATPase L139A): 3.3 ± 0.3 µM
-fold increase in K i compared with wild-type (H^+,K^+-ATPase L139A; L139A): 1.0 fold
Ki (H^+,K^+-ATPase D137L): 32 ± 6 µM
-fold increase in K i compared with wild-type (H^+,K^+-ATPase D137L; D137L): 10 fold
Ki (H^+,K^+-ATPase Y799F [4]): 18 ± 2 µM
-fold increase in K i compared with wild-type (H^+,K^+-ATPase Y799F [4]; Y799F): 5.6 fold
Ki (H^+,K^+-ATPase D137A): 28 ± 2 µM
-fold increase in K i compared with wild-type (H^+,K^+-ATPase D137A; D137A): 8.8 fold
Ki (H^+,K^+-ATPase L139F): 6.6 ± 0.5 µM
-fold increase in K i compared with wild-type (H^+,K^+-ATPase L139F; L139F): 2.1 fold
Ki (H^+,K^+-ATPase Y140A): 7.3 ± 1 µM
-fold increase in K i compared with wild-type (H^+,K^+-ATPase Y140A; Y140A): 2.3 fold
Ki (H^+,K^+-ATPase D137I): 39 ± 7 µM
-fold increase in K i compared with wild-type (H^+,K^+-ATPase D137I; D137I): 12 fold
Ki (H^+,K^+-ATPase D136L): 3.3 ± 0.2 µM
-fold increase in K i compared with wild-type (H^+,K^+-ATPase D136L; D136L): 1.0 fold
-fold increase in K i compared with wild-type [5]: 7.2 fold
Ki ([5]; global fitting): 23 ± 20 µM
-fold increase in K i compared with wild-type (H^+,K^+-ATPase WT): 1.0 fold
Ki (H^+,K^+-ATPase WT; global fitting, mean ± SEM): 3.2 ± 0.3 µM
Ki (H^+,K^+-ATPase N138L): 14 ± 2 µM
-fold increase in K i compared with wild-type (H^+,K^+-ATPase N138L; N138L): 4.4 fold
Ki (H^+,K^+-ATPase L139I): 1.1 ± 0.1 µM
-fold increase in K i compared with wild-type (H^+,K^+-ATPase L139I; L139I): 0.3 fold
Ki (H^+,K^+-ATPase Y140F): 3.7 ± 0.2 µM
-fold increase in K i compared with wild-type (H^+,K^+-ATPase Y140F; Y140F): 1.2 fold
Ki (H^+,K^+-ATPase Y140L): 2.7 ± 0.2 µM
-fold increase in K i compared with wild-type (H^+,K^+-ATPase Y140L; Y140L): 0.8 fold
Structure (SMILES): Cc1cn2cccc(OCc3ccccc3)c2n1 [SCH-CN^−]

Structure (SMILES): Cc1nc2c(OCc3ccccc3)cccn2c1CC#N [SCH28080]
effect on affinity (in words) (H^+,K^+-ATPase Y799F [6]): negligible effects
protonation [7]: approximately 2.5%
Ki [8]: > 40 µM
affinity (in words) [8]: almost no affinity
fold low apparent affinity (IC 50) (H^+,K^+-ATPase Y799A [9]): ~ 100 fold and 100 fold
fold reduced affinity (H^+,K^+-ATPase L809F [10]; L809F vs wild-type, previously reported): more than 90 fold
Ki (H^+,K^+-ATPase L809F [10]; L809F): 6.15 µM

Source: PMC5529566, “The cryo-EM structure of gastric H^+,K^+-ATPase with bound BYK99, a high-affinity member of K^+-competitive, imidazo[1,2-a]pyridine inhibitors” (Scientific Reports, 2017)
